Measurements as given in PubChem BioAssay (NCI).
Several values for one entry are separate records, joined by “and”; a condition that tells them apart may be missing. Equal entries are not always repeated.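 96-well plates; 48 h exposure; 5 concentrations. Endpoints by linear interpolation between flanking doses. Not reached: highest tested concentration assigned. GI50: concentration for 50% inhibition of growth. TGI: total growth inhibition.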

Experiments:
Experiment in all cases: growth of human tumour cells (NCI), 48 h
TK-10 renal = tested on: TK-10 renal
RXF 393 renal = tested on: RXF 393 renal
NCI-H226 lung = tested on: NCI-H226 lung
SR leukemia = tested on: SR leukemia
PC-3 prostate = tested on: PC-3 prostate
OVCAR-4 ovarian = tested on: OVCAR-4 ovarian
COLO 205 colon = tested on: COLO 205 colon
M14 melanoma = tested on: M14 melanoma
SK-MEL-28 melanoma = tested on: SK-MEL-28 melanoma
T-47D breast = tested on: T-47D breast

COc1ncnc2c(-c3ccccc3)cn(COCc3ccccc3)c12
GI50 (TK-10 renal): 4.05 µM | TGI (TK-10 renal): > 100 µM | GI50 (RXF 393 renal): 2.5 µM | TGI (RXF 393 renal): 7.71 µM | GI50 (NCI-H226 lung): 2.03 µM | TGI (NCI-H226 lung): 8.12 µM | GI50 (SR leukemia): 2.79 µM | TGI (SR leukemia): 43.2 µM | GI50 (PC-3 prostate): 2.72 µM | TGI (PC-3 prostate): > 100 µM | GI50 (OVCAR-4 ovarian): 2.26 µM | TGI (OVCAR-4 ovarian): 9.5 µM | GI50 (COLO 205 colon): 2.69 µM | TGI (COLO 205 colon): 7.73 µM | GI50 (M14 melanoma): 2.66 µM | TGI (M14 melanoma): 7.07 µM | GI50 (SK-MEL-28 melanoma): 3.33 µM | TGI (SK-MEL-28 melanoma): 48.9 µM | GI50 (T-47D breast): 3.04 µM | TGI (T-47D breast): 9.84 µM

C=C(C)C(O)CCC1(C)C=Cc2c(c(C)cc3c2[nH]c2ccccc23)O1 (centres undefined)
GI50 (TK-10 renal): 14 µM | TGI (TK-10 renal): > 25 µM and 27 µM | GI50 (RXF 393 renal): 2.78 µM | TGI (RXF 393 renal): 25 µM and 8.51 µM | TGI (NCI-H226 lung): 22.7 µM and 21.7 µM | GI50 (SR leukemia): 4.43 µM | TGI (SR leukemia): 25 µM and 16.5 µM | TGI (PC-3 prostate): 19.3 µM | TGI (OVCAR-4 ovarian): 30.8 µM | GI50 (COLO 205 colon): 2.43 µM | TGI (COLO 205 colon): 9.81 µM and 6.13 µM | GI50 (M14 melanoma): 6.63 µM | TGI (M14 melanoma): 10.9 µM and 19.7 µM | TGI (SK-MEL-28 melanoma): 25 µM | TGI (T-47D breast): 21.5 µM

CC1(C)C2CCC13C(=O)C1OC3(C2)C2C(=O)c3cc4ccccc4cc3C(=O)C12 (centres undefined)
GI50 (TK-10 renal): 12.9 µM | TGI (TK-10 renal): 44.5 µM | GI50 (RXF 393 renal): 8.4 µM | TGI (RXF 393 renal): 46.2 µM | GI50 (NCI-H226 lung): 24.9 µM | TGI (NCI-H226 lung): 95.2 µM | GI50 (SR leukemia): 1.83 µM | TGI (SR leukemia): 7.04 µM | GI50 (PC-3 prostate): 3.85 µM | TGI (PC-3 prostate): 27.8 µM | GI50 (COLO 205 colon): 14.7 µM | TGI (COLO 205 colon): > 100 µM | GI50 (M14 melanoma): 10.7 µM | TGI (M14 melanoma): > 100 µM | GI50 (SK-MEL-28 melanoma): 8.36 µM | TGI (SK-MEL-28 melanoma): > 100 µM | GI50 (T-47D breast): 4.68 µM | TGI (T-47D breast): 50.5 µM

COc1cc(C(O)CCBr)c(OC)cc1C (centres undefined)
TGI (TK-10 renal): > 100 µM | TGI (RXF 393 renal): > 100 µM | TGI (NCI-H226 lung): > 100 µM | TGI (SR leukemia): > 31.6 µM | TGI (PC-3 prostate): > 73 µM | TGI (OVCAR-4 ovarian): > 100 µM | TGI (COLO 205 colon): > 57 µM | TGI (M14 melanoma): 33.9 µM | TGI (SK-MEL-28 melanoma): > 100 µM | TGI (T-47D breast): > 100 µM

N#Cc1ccc(OCc2nc(N)nc(N)c2-c2ccc(Cl)c(Cl)c2)cc1
GI50 (RXF 393 renal): 0.597 µM | TGI (RXF 393 renal): 30 µM | GI50 (NCI-H226 lung): 4.86 µM | TGI (NCI-H226 lung): > 100 µM | GI50 (SR leukemia): 4.03 µM | TGI (SR leukemia): 66.2 µM | GI50 (PC-3 prostate): 0.613 µM | TGI (PC-3 prostate): > 100 µM | GI50 (OVCAR-4 ovarian): 6.43 µM | TGI (OVCAR-4 ovarian): > 100 µM | GI50 (COLO 205 colon): 4.02 µM | TGI (COLO 205 colon): > 100 µM | GI50 (M14 melanoma): 0.741 µM | TGI (M14 melanoma): > 100 µM | GI50 (SK-MEL-28 melanoma): 4.39 µM | TGI (SK-MEL-28 melanoma): 40.2 µM | GI50 (T-47D breast): 9.64 µM | TGI (T-47D breast): > 100 µM

Cc1c[n+](=O)c2ccccc2n1[O-]
TGI (TK-10 renal): > 100 µM | TGI (RXF 393 renal): > 100 µM | TGI (SR leukemia): > 100 µM | TGI (PC-3 prostate): > 100 µM | TGI (OVCAR-4 ovarian): > 100 µM | TGI (COLO 205 colon): > 100 µM | TGI (M14 melanoma): > 100 µM | TGI (SK-MEL-28 melanoma): > 100 µM | TGI (T-47D breast): > 100 µM

CC(C)Cn1cnc2c(SCc3ccc(Cl)cc3Cl)nc(N)nc21
TGI (TK-10 renal): > 100 µM | TGI (RXF 393 renal): > 100 µM | TGI (SR leukemia): 25.8 µM | TGI (PC-3 prostate): > 100 µM | TGI (OVCAR-4 ovarian): > 100 µM | TGI (COLO 205 colon): 24.6 µM | TGI (M14 melanoma): > 100 µM | TGI (SK-MEL-28 melanoma): > 100 µM | TGI (T-47D breast): > 100 µM

COc1cc(/C=C\c2cc(OC)c(OC)c(OC)c2)cc(NC(=O)/C=C/c2cc(OC)c(OC)c(OC)c2)c1OC
GI50 (TK-10 renal): 6.72 µM | TGI (TK-10 renal): > 100 µM | GI50 (RXF 393 renal): 4.77 µM | TGI (RXF 393 renal): > 100 µM | GI50 (NCI-H226 lung): 50 µM | TGI (NCI-H226 lung): > 100 µM | GI50 (SR leukemia): 0.23 µM | TGI (SR leukemia): > 100 µM | GI50 (PC-3 prostate): 3.02 µM | TGI (PC-3 prostate): > 100 µM | GI50 (OVCAR-4 ovarian): 3.86 µM | TGI (OVCAR-4 ovarian): > 100 µM | GI50 (COLO 205 colon): 4.2 µM | TGI (COLO 205 colon): > 100 µM | GI50 (M14 melanoma): 3.78 µM | TGI (M14 melanoma): > 100 µM | GI50 (SK-MEL-28 melanoma): 3.51 µM | TGI (SK-MEL-28 melanoma): > 100 µM | GI50 (T-47D breast): 3.11 µM | TGI (T-47D breast): > 100 µM
